What was measured:
[1] = system: corn plants (variety NK OCTET); test: Reduced plant water use in corn (foliar spray, pot weighing); assay type: in vivo; details: for % WU 0 DAA (PM): Table A3 (comparison trial), 0 DAA p.m.
Description: (§1) Compounds were tested for their effect on reducing plant water use as follows. The compounds were applied by foliar spray to 12 day old corn plants (variety NK OCTET) grown in controlled environment plant growth chambers. All compounds were applied using an emulsifiable concentrate (EC) formulation that was diluted to the desired concentrations with water containing 0.4% of the adjuvant rape seed methyl ester. Plant water use during the day was assessed by repeated weighing of the pots in which the plants were grown before and after application of the compounds at the indicated times (expressed in days after application (DAA)). The water use data before application was used to correct any differences in water use arising due to non-treatment effects (e.g. due to differences in plant size). The untransformed water use values were subjected to an analysis of covariance, fitting the effect of treatment and using the baseline water use 1 day before application as a covariate. Application of the chemicals (0 DAA) took place approximately between 08:00 and 09:30 a.m. Water use (WU) was measured within day time (chamber light is on 06:00 to 20:00) at these timepoints: 0 DAA a.m. (10:30-12:50), 0 DAA p.m. (14:00-19:50).

[2] = system: soybean plants (variety S20-G7); test: Reduced plant water use in soybean (foliar spray, pot weighing); assay type: in vivo; details: Table A4, 125 μM foliar spray, water use vs negative control, average of 6 pots; for % WU 0 DAA (AM): 0 DAA a.m. (10:30-12:50); for % WU 0 DAA (PM): 0 DAA p.m. (14:00-19:50)
Description: as §1, with “soybean” for “corn”, “S20-G7)” for “NK OCTET)”, “concentration” for “concentrations”, “additional surfactant (EXTRAVON 1 g/20 L).” for “0.4% of the adjuvant rape seed methyl ester.”, “covariate.” for “covariate. Application of the chemicals (0 DAA) took place approximately between 08:00 and 09:30 a.m. Water use (WU) was measured within day time (chamber light is on 06:00 to 20:00) at these timepoints: 0 DAA a.m. (10:30-12:50), 0 DAA p.m. (14:00-19:50).”
Application of the chemicals (0 DAA) took place approximately between 08:00 and 09:30 a.m. Water use (WU) was measured within day time (chamber light is on 06:00 to 20:00) at these timepoints: 0 DAA a.m. (10:30-12:50), 0 DAA p.m. (14:00-19:50).

[3] = corn, 500 μM foliar spray, water use vs negative control, average of 6 pots

SMILES: CCN1C(=O)CC(C)c2cc(CNS(=O)(=O)c3ccccc3)ccc21 (centres unmarked) [A, reference compound]
- % WU 0 DAA (PM) [1, 3]: −24%

SMILES: CCN1C(=O)OC(C)c2cc(CNS(=O)(=O)c3ccccc3)ccc21 (centres unmarked) [Compound 13.001, N-[(1-ethyl-4-methyl-2-oxo-4H-3,1-benzoxazin-6-yl)methyl]-benzenesulfonamide]
- % WU 0 DAA (PM) [1, 3]: −40%
- ABA agonist potency compared with compound A (in words) ([1]; concluded from Table A3, corn water use at 500 μM): more potent ABA agonist than dihydroquinolinone compound A

SMILES: CCCN1C(=O)OC(C)c2cc(CNS(=O)(=O)c3ccccc3)ccc21 (centres unmarked) [Compound 14.001, N-[(4-methyl-2-oxo-1-propyl-4H-3,1-benzoxazin-6-yl)methyl]-benzenesulfonamide]
- % WU 0 DAA (AM) [2]: −49%
- % WU 0 DAA (PM) [2]: −55%

SMILES: CCCN1C(=O)OC(C)c2cc(CNS(=O)(=O)c3ccc(Cl)s3)ccc21 (centres unmarked) [Compound 14.048, 5-chloro-N-[(4-methyl-2-oxo-1-propyl-4H-3,1-benzoxazin-6-yl)methyl]thiophene-2-sulfonamide]
- % WU 0 DAA (AM) [2]: −51%
- % WU 0 DAA (PM) [2]: −55%

SMILES: CCN1C(=O)OC(C)c2cc(CNS(=O)(=O)c3ccccc3)cc(F)c21 (centres unmarked) [Compound 20.001, N-[(1-ethyl-8-fluoro-4-methy1-2-oxo-4H-3,1-benzoxazin-6-yl)methyl]benzenesulfonamide]
- % WU 0 DAA (AM) ([1]; Table A2 (further trial), corn, 500 μM foliar spray, water use vs negative control, 0 DAA a.m. (10:30-12:50), average of 6 pots): −37%
- % WU ODAA (PM) ([1]; Table A2 (further trial), corn, 500 μM foliar spray, water use vs negative control, 0 DAA p.m. (14:00-19:50), average of 6 pots): −42%

SMILES: CCCN1C(=O)OC(C)c2cc(CNS(=O)(=O)c3ccccc3)cc(F)c21 (centres unmarked) [Compound 25.001, N-[(8-fluoro-4-methyl-2-oxo-1-propyl-4H-3,1-benzoxazin-6-yl)methyl]benzenesulfonamide]
- % WU 0 DAA (AM) [2]: −48%
- % WU 0 DAA (PM) [2]: −53%

Reference: patent publication US10791742B2, “Plant growth regulator compounds” (SYNGENTA PARTICIPATIONS AG, priority 2016, dated 2020)
